# Where “and” joins values, the source holds several entries; their conditions need not be identical. Equal values may be shown once. Entries after “also recorded” stand apart in the source; their conditions may differ. Read-outs that look alike come from different tables or passages of the source.
# Experiments:
# [1] = test system: BxPc-3, Colo-357 and Capan-1; assay: PDGF effect on cell growth, three additional cell lines; assay type: cell-based, human; conditions: BxPc-3, Colo-357 and Capan-1, growth factor alone
# Description: (§1) Cell culture and MTT assay: Human pancreatic cancer cell lines are routinely grown in DMEM (Colo-357 and Mia-PaCa-2) or RPMI (Aspc-1, BxPc-3, Capan-1, and T3M4) supplemented with 10% FBS, 100 U/ml penicillin, and 100 μg/ml streptomycin (complete medium). To assess cell proliferation, the MTT test is employed. […] After 48 or 72 hours of incubation, 3-(4,5-methylthiazol-2-yl)-2,5-diphenyl-tetrazolium bromide (MTT) is added (50 μg/well) for 4 hours. Formazan products are solubilized with acidic isopropanol, and the optical density is measured at 570 nm. […] All experiments are performed in triplicate.
# (§2) EGF-induced proliferation of both Mia-PaCa-2 and T3M4 cell lines in a dose-dependent manner is seen with maximal effects of +72% ±7.5% (Mia-PaCa-2) and +52% ±23% (T3M4). […] FGF-2 markedly stimulates cell growth in Mia-PaCa-2 cell lines with maximal effects of +79% ±6%, and only slightly stimulated T3M4 cell lines, with maximal effects of +7% ±4%. […] Both cell lines are less sensitive to IGF-1 stimulation compared with EGF and FGF-2, with maximal effects of +24% ±2% in Mia-PaCa-2 and +17% ±4% in. T3M4.
# [2] = test system: Mia-PaCa-2 cells; assay: Growth factor-induced proliferation (MTT), Mia-PaCa-2; assay type: cell-based, human
# Description: as §1, §2
# [3] = test system: MAPK; assay: Western blot of MAPK phosphorylation in growth factor-conditioned cells; assay type: cell-based, human
# Description: (§3) Western blot analysis: Cell culture monolayers are washed twice with ice-cold PBS and lysed with buffer containing Tris-HCl (50 mM, pH 7.4), NP-40 (1%), Na-deoxycholate (0.25%), NaCl (150 mM), EDTA (1 mM), PMSF (1 mM), Na3VO4 (1 mM), NaF (1 mM) and one tablet of complete mini-EDTA-free protease inhibitor cocktail (in 10 ml buffer). Protein concentration is determined by the BCA protein assay (Pierce Chemical Co., Rockford, Ill., USA). 30 μg of cell lysates are separated on SDS-polyacrylamide gels and electroblotted onto nitrocellulose membranes. Membranes are then incubated in blocking solution (5% nonfat-milk in 20 mM Tris-HCl, 150 mM NaCl, 0.1% Tween-20) (TBS-T), followed by incubation with the indicated antibodies at 4° C. overnight. The membranes are then washed in TBS-T and incubated with HRPO-conjugated secondary antibodies for 1 hour at room temperature. Antibody detection is performed with an enhanced chemiluminescence reaction. Statistical analysis: Results are expressed as mean±SEM. For statistical analysis, the Student's t-test is used. Significance is defined as p<0.05.
# [4] = test system: T3M4 cells; assay: Growth factor-induced proliferation (MTT), T3M4; assay type: cell-based, human
# Description: as §1, §2
# [5] = target: T1, EGFR (Homo sapiens, UniProt P00533); assay: Western blot of EGFR phosphorylation in growth factor-conditioned cells; assay type: cell-based; conditions: growth factor-conditioned Mia-PaCa-2 and T3M4 cells
# T1 construct: endogenous in cells; host or cells: Mia-PaCa-2 and T3M4 pancreatic cancer cells
# Description: as §3
# [6] = test system: TAKA-1 cells and the three pancreatic cancer cell lines; assay: MTT cell growth assay, span over all four lines (Example 1); assay type: cell-based; conditions: span over TAKA-1 and three pancreatic cancer cell lines
# From the text: (§4) Cell culture and proliferation assay: The following materials are purchased: FCS, RPMI and Dulbecco's modified Eagle medium (DMEM), trypsin-EDTA solution, penicillin-streptomycin solution from Biochrom K G (Berlin, Germany). All the other reagents are from Sigma Chemical Co. (St. Louis, Mo., USA). ASPC-1, MIA PaCA-2, human pancreatic cell lines are obtained from American Type Culture Collection (Rockville, Md.). Compound I is kindly provided by Novartis Pharma AG (Basel, Switzerland). T3M4 human pancreatic cell lines are a gift from Dr. R. S. Metzgar (Durham, N.C., USA). TAKA-1 immortalized Syrian golden hamster pancreatic ductal cells are a gift from Prof. P. Pour (University of Nebraska, Omaha, Nebr., USA). Human pancreatic cancer cell lines are routinely grown in DMEM (MIA-PaCA-2) or RPMI (ASPC-1, T3M4) supplemented with 10% FCS, 100 U/ml penicillin and 100 μg/ml streptomycin (complete medium).
# (§5) TAKA-1 cells are grown in RPMI supplemented with 10% FCS, 100 U/ml penicillin and 100 μg/ml streptomycin. Cells are seeded overnight at a density of 5000 cells/well in 96-well plates and the proliferation assay is performed as described above. […] Cellular MTT is solubilized with acidic isopropanol and the optical density is measured at 570 nm using a plate reader (Dynatech MR 7000). […]
# (§6) Statistical analysis: Results are expressed as mean±SD. […]
# [7] = test system: Lung cancer (6 cell lines); conditions: other reported cancer cells, read-out: GI50 concentration; cited from earlier work
# [8] = test system: ASPC-1 cells; assay: GI50 by MTT assay, Aspc-1 (Example 2); assay type: cell-based; conditions: Homo sapiens, ASPC1, read-out: GI50 concentration
# From the text: (§7) Material and Methods: RPMI-1640 DMEM, trypsin-EDTA, and penicillin-streptomycin are purchased from Invitrogen (Karlsruhe, Germany); FBS from PAN Biotech (Aidenbach, Germany); human recombinant PDGF, IGF-1 and FGF-2 from R&D Systems (Abingdon, United Kingdom), and EGF from Upstate Biotechnology (Hamburg, Germany). Phospho-PDGFR-beta (tyr857) and P-EGFR (tyr1173) polyclonal antibodies are purchased from Santa Cruz Biotechnology, Inc. (Santa Cruz, Calif., USA). Phospho-p44/42 MAPK (Thr202/Tyr204) antibodies are purchased from Cell Signaling Technology (Frankfurt, Germany), anti-rabbit IgG HRPO-linked antibodies and ECL immunoblotting detection reagents from Amersham Biosciences (Amersham Life Science, Amersham, UK), and anti-goat IgG-HPRO peroxidase linked antibodies from Santa Cruz Biotechnology, Inc. (Santa Cruz, Calif., USA). Complete mini-EDTA-free protease inhibitor cocktail tablets and Annexin-V-Fluos are purchased from Roche GmbH (Mannheim, Germany). All other reagents are from Sigma Chemical Company (Taufkirchen, Germany).
# (§8) Cell culture and MTT assay: Human pancreatic cancer cell lines are routinely grown in DMEM (Colo-357 and Mia-PaCa-2) or RPMI (Aspc-1, BxPc-3, Capan-1, and T3M4) supplemented with 10% FBS, 100 U/ml penicillin, and 100 μg/ml streptomycin (complete medium). […] Formazan products are solubilized with acidic isopropanol, and the optical density is measured at 570 nm. […]
# [9] = test system: CML (K562 cell lines); conditions: other reported cancer cells, read-out: GI50 concentration; cited from earlier work
# [10] = test system: six tested pancreatic cancer cell lines; assay: GI50 by MTT assay, span over all six pancreatic cancer cell lines; assay type: cell-based; conditions: Homo sapiens, read-out: GI50 concentration, range over cell lines
# From the text: as §7, §8
# [11] = test system: Capan-1 cells; assay: GI50 by MTT assay, Capan-1 (Example 2); assay type: cell-based; conditions: Homo sapiens, Capan-1, complete medium (10% FBS), 48 h, read-out: GI50 concentration
# From the text: as §7, §8
# [12] = test system: Lung cancer (A549 cell line); conditions: other reported cancer cells, read-out: GI50 concentration; cited from earlier work
# [13] = test system: T3M4 cells; assay: GI50 by MTT assay, T3M4 (Example 2); assay type: cell-based; conditions: Homo sapiens, T3M4, complete medium (10% FBS), 48 h, read-out: GI50 concentration
# From the text: as §7, §8
# [14] = test system: TAKA-1 cells; assay: MTT cell growth assay, TAKA-1 cells (Example 1); assay type: cell-based, Syrian golden hamster; conditions: 72 h
# From the text: as §4
# TAKA-1 cells are grown in RPMI supplemented with 10% FCS, 100 U/ml penicillin and 100 μg/ml streptomycin. Cells are seeded overnight at a density of 5000 cells/well in 96-well plates and the proliferation assay is performed as described above. […] After 72 hours, 3-(4,5-methylthiazol-2-yl)-2,5-diphenyl-tetrazolium bromide (MTT) is added (50 μg/well) for 4 hours. Cellular MTT is solubilized with acidic isopropanol and the optical density is measured at 570 nm using a plate reader (Dynatech MR 7000). All experiments are performed in triplicates.
# Statistical analysis: Results are expressed as mean±SD. For statistical analysis, the Student t-test is used. Significance is defined as p<0.05.
# [15] = test system: pancreatic cancer cell lines; assay: FACS cell cycle analysis; assay type: cell-based, human; conditions: 48 hours of incubation, Compound I at GI50, compared to untreated cells
# From the text: (§9) The resulting DNA histograms are interpreted using the Cell Quest Pro software (Becton Dickinson and Company, New York, USA).
# [16] = test system: BxPc-3 cells; assay: GI50 by MTT assay, BxPc-3 (Example 2); assay type: cell-based; conditions: Homo sapiens, BxPc-3, complete medium (10% FBS), 48 h, read-out: GI50 concentration
# From the text: as §7, §8
# [17] = test system: MIA PaCA-2 cells; assay: MTT cell growth assay, MIA PaCA-2 cells (Example 1); assay type: cell-based; conditions: Homo sapiens, MIA PaCa-2, 72 h, Mia-Paca-2, 75 μM Compound I, read-out: Percent growth inhibition by comparison with control cell growth
# From the text: as §4, §5, §6
# [18] = test system: Mia-PaCa-2 cells; assay: GI50 by MTT assay, Mia-PaCa-2 (Example 2); assay type: cell-based; conditions: Homo sapiens, read-out: GI50 concentration
# From the text: as §7, §8
# [19] = test system: pancreatic tumor cells; conditions: complete medium (10% FCS) and 1% FCS medium
# From the text: as §9
# [20] = test system: Colo-357 cells; assay: GI50 by MTT assay, Colo-357 (Example 2); assay type: cell-based; conditions: Homo sapiens, COLO357, Colo-357, complete medium (10% FBS), 48 h, read-out: GI50 concentration
# From the text: as §7, §8
# [21] = test system: Mia-PaCa-2 cells; assay: Propidium iodide staining of cell death, Mia-PaCa-2; assay type: cell-based, human; conditions: Mia-PaCa-2, Compound I at GI50, 1% FBS medium; control 10.7% ±2.5%
# From the text: as §9
# [22] = test system: colorectal cancer (HT29); conditions: other reported cancer cells, read-out: GI50 concentration; cited from earlier work
# [23] = test system: ASPC-1 cells; assay: MTT cell growth assay, ASPC-1 cells (Example 1); assay type: cell-based, human
# From the text: as §4, §5, §6
# [24] = test system: T3M4 cells; assay: Propidium iodide staining of cell death, T3M4; assay type: cell-based, human; conditions: T3M4, Compound I at GI50, 1% FBS medium; control 5.7% ±2.8%
# From the text: as §9
# [25] = test system: T3M4 cells; assay: MTT cell growth assay, T3M4 cells (Example 1); assay type: cell-based, human
# From the text: as §4, §5, §6
# T1 sequence (P00533 25-1210): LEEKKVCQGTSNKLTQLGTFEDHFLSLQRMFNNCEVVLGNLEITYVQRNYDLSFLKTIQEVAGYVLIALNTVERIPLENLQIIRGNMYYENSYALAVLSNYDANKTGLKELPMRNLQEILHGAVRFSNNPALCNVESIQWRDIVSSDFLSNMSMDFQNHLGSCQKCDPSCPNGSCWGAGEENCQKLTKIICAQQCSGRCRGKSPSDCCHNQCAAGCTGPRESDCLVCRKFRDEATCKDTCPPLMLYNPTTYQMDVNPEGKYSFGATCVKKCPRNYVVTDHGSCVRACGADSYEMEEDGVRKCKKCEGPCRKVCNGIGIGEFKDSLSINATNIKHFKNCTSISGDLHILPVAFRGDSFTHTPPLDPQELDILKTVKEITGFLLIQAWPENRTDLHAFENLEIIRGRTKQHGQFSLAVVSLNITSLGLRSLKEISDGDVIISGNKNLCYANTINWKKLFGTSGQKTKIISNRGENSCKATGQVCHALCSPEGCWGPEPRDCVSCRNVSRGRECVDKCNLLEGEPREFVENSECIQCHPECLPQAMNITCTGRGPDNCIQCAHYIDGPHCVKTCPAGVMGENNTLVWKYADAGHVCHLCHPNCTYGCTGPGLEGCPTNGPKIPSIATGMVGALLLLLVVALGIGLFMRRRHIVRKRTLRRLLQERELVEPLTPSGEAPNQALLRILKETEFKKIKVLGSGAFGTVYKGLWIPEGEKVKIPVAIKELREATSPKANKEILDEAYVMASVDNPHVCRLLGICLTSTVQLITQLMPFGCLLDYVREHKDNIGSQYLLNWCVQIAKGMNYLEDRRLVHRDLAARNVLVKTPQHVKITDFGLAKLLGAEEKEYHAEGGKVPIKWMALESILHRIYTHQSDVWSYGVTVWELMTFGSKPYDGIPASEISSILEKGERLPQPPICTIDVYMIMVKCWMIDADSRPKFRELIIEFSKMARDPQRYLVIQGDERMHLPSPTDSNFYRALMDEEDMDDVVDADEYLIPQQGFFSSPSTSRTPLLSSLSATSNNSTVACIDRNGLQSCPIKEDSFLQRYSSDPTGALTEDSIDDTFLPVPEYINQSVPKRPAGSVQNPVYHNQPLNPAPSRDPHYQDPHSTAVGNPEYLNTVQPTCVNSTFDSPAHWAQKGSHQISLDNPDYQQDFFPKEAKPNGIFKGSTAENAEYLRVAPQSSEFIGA
compound,measurement,setting,value
PDGF,Effect of growth factor on cell growth,[1],no effect on cell growth
same,Induction of cell proliferation by growth factor,"[2]; Mia-PaCa-2, growth factor alone",does not induce cell proliferation
same,Induction of PDGF and MAPK kinase phosphorylation,"[3]; Mia-PaCa-2 and T3M4 cells, data not shown",does not induce PDGF and MAPK kinase phosphorylation
same,Induction of cell proliferation by growth factor,"[4]; T3M4, growth factor alone",does not induce cell proliferation
Cc1ccc(NC(=O)c2ccc(CN3CCN(C)CC3)cc2)cc1Nc1nccc(-c2cccnc2)n1 [Compound I],Inhibition of EGFR activation,[5],does not inhibit activation
same,Minimal threshold effects on cell growth,"[6]; 5 μM Compound I, p>0.05",−4% to −9
same,Maximal inhibitory effects on cell growth,"[6]; 75 µM Compound I, p<0.001",−77% to −90
same,GI50,[7],~5 µM
same,GI50,"[8]; Aspc-1, complete medium (10% FBS), 48 h, MTT",31.5 µM
same,GI50,"[8]; Aspc-1, low serum conditions (1% FCS)",20 µM
same,GI50,[9],0.56 µM
same,GI50,"[10]; all six pancreatic cancer cell lines, 10% FBS/FCS medium",17 to 31.5 µM
same,GI50,"[10]; pancreatic cancer cell lines, low serum conditions (1% FCS)",9 to 20 µM
same,GI50,[11],19 µM
same,GI50,[12],2 to 3 µM
same,GI50,[13],25 µM
same,inhibition at 25 µM,"[14]; Mesocricetus auratus, TAKA-1, 25 μM Compound I, read-out: Percent growth inhibition by comparison with control cell growth",70.9%
same,inhibition at 75 µM,"[14]; Mesocricetus auratus, TAKA-1, 75 μM Compound I, read-out: Percent growth inhibition by comparison with control cell growth",90.8%
same,Percent growth inhibition by comparison with control cell growth,"[14]; TAKA-1, 25 μM Compound I, 25 µM",−65% and −67.9%
same,Percent growth inhibition by comparison with control cell growth,"[14]; TAKA-1, 75 μM Compound I, 75 µM",−91.5% and −90.6%
same,Change in cell cycle pattern,[15],does not reveal any significant changes in the cell cycle pattern; also recorded: no cell cycle change
same,GI50,[16],21 µM
same,inhibition at 75 µM,[17],86.6%
same,GI50,"[18]; Mia-PaCa-2, complete medium (10% FBS), 48 h, MTT",26 µM
same,GI50,"[18]; Mia-PaCa-2, low serum conditions (1% FCS)",9 µM
same,Apoptotic cell death,[19],No apoptotic cell death is observed
same,Inhibitory effect on IGF-1-induced proliferation,"[2]; Mia-PaCa-2, IGF-1 plus Compound I at GI50, 72 hours, MTT",no significant inhibitory effects
same,Inhibition of MAPK activation,"[3]; growth factor-conditioned Mia-PaCa-2 and T3M4 cells, Western blot",does not inhibit activation
same,Inhibitory effect on IGF-1-induced proliferation,"[4]; T3M4, IGF-1 plus Compound I at GI50, 72 hours, MTT",no significant inhibitory effects
same,GI50,[20],17 µM
same,Cell death by propidium iodide staining,[21],33.7±16.5%
same,GI50,[22],6 µM
same,Percent growth inhibition by comparison with control cell growth,"[23]; Aspc-1, 5 μM Compound I, 72 h, 5 µM",−12.9% and −4.8% and −3.7%
same,inhibition at 75 µM,"[23]; Homo sapiens, ASPC1, 72 h, Aspc-1, 75 μM Compound I, read-out: Percent growth inhibition by comparison with control cell growth",85.6%
same,Cell death by propidium iodide staining,[24],26.8% +16.5
same,inhibition at 75 µM,"[25]; Homo sapiens, T3M4, 72 h, T3M4, 75 μM Compound I, read-out: Percent growth inhibition by comparison with control cell growth",85.6%
same,Percent growth inhibition by comparison with control cell growth,"[25]; T3M4, 5 μM Compound I, 72 h, 5 µM",−12.9% and −4.8% and −3.8%
